Where a name gives a salt, the structure may show the parent alone.
Key:
[1] = test system: patients with moderate-to-severe ulcerative colitis; assay: CALDOSE-1 phase 2 trial (NCT03341962), induction phase efficacy; assay type: in vivo, human; conditions: for Odds Ratio Estimate to achieve clinical remission versus placebo: active treatment groups of 30/45 mg, multivariate logistical regression
[2] = test system: patients with moderate-to-severe ulcerative colitis; assay: CALDOSE-1 phase 2 trial, maintenance phase efficacy (Week 50); assay type: in vivo, human; conditions: for Clinical Remission Rate at Week 50 (steroid-free): Modified Full Analysis Set MP; for Number of Patients with Clinical Remission at Week 50 (steroid-free): Modified Full Analysis Set MP (corticosteroids during induction)
[3] = test system: patients with moderate-to-severe ulcerative colitis; assay: CALDOSE-1 phase 2 trial, safety and tolerability; assay type: in vivo, human; conditions: for Incidence of TEAEs of Special Interest: red blood cells urine positive, hematuria or retroperitoneal pain
[4] = test system: patients with relapsing remitting MS (rrMS); conditions: cited from earlier work
[5] = in vivo; cited from earlier work
human DHODH = human DHODH (Homo sapiens, UniProt Q02127); conditions: cited from earlier work
[6] = test system: T-lymphocyte proliferation; conditions: in vitro; cited from earlier work
[7] = test system: secretion of IL-17 and IFNγ; conditions: in vitro; cited from earlier work
patients with CD = conditions: 12 weeks, cited from earlier work
patients with UC = conditions: 12 weeks, cited from earlier work
[8] = test system: patients with inflammatory bowel disease (IBD); conditions: 35 mg oral once daily, 12 weeks; cited from earlier work
[9] = test system: patients with active rheumatoid arthritis; conditions: 35 mg once-daily for 13 weeks; cited from earlier work

Chain of human DHODH (Q02127 whole entry): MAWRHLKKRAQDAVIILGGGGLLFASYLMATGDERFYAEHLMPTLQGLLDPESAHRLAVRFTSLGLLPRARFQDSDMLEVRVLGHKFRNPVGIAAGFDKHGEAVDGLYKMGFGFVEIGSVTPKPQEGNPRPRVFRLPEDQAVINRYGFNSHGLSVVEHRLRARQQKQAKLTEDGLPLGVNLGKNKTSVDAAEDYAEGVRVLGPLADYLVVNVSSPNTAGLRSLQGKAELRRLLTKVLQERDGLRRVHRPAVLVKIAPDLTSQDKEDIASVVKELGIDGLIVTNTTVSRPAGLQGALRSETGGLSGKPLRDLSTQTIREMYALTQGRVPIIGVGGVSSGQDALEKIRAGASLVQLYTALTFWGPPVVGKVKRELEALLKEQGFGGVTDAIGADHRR

COc1cccc(-c2ccc(NC(=O)C3=C(C(=O)O)CCC3)c(F)c2)c1 [IMU-838, 1-cyclopentene-1-carboxylic acid, 2-(((3-fluoro-3′-methoxy(1,1′-biphenyl)-4-yl)amino)carbonyl)-, calcium salt (2:1)]
clinical remission at week 10 ([1]; 10 mg/day, overall intent-to-treat patient population): 14.9%
clinical remission at week 10 ([1]; 30 mg/day, overall intent-to-treat patient population): 10.6%
clinical remission at week 10 ([1]; 45 mg/day, overall intent-to-treat patient population): 13.6%
Odds Ratio Estimate to achieve clinical remission versus placebo ([1]; with concomitant steroids): 0.58
Odds Ratio Estimate to achieve clinical remission versus placebo ([1]; without concomitant steroids): 3.53
rate of clinical remission at week 10 ([1]; patients concomitantly taking corticosteroids during induction treatment): 11.5%
clinical remission (primary endpoint) at Week 10 ([1]; pooled 30 and 45 mg, Full Analysis Set, n=16 missing data): 13.8%
patients with clinical remission (primary endpoint) at Week 10 ([1]; pooled 30 and 45 mg, Full Analysis Set, of 116 evaluated): 16
advantage in clinical remission over placebo ([1]; pooled treatment groups at week 10, non-steroid patient population): 11.4%
clinical remission at week 10 ([1]; pooled treatment groups, non-steroid patient population (no concurrent corticosteroids)): 14.7%
Clinical Remission Rate at Week 50 (steroid-free) ([2]; 10 mg): 38.5%
Number of Patients with Clinical Remission at Week 50 (steroid-free) ([2]; 10 mg, N10 = 22): 5
Mean time to symptomatic UC relapse ([2]; 10 mg, N = 45): 231.7 days
Clinical Remission Rate at Week 50 ([2]; 10 mg, n = 26/35): 42.3%
Number of Patients with Clinical Remission at Week 50 ([2]; 10 mg, n = 26/35 evaluated/total): 11
Endoscopic Healing Rate at Week 50 ([2]; 10 mg, n = 28/35): 53.6%
Number of Patients Meeting Endpoint (Endoscopic Healing at Week 50) ([2]; 10 mg, n = 28/35): 15
delta (Δ) vs placebo in clinical remission at Week 50 ([2]; 30 mg, 95% CI 3.2%-59.3%): 33.8%
Clinical Remission Rate at Week 50 (steroid-free) ([2]; 30 mg): 66.7%
Number of Patients with Clinical Remission at Week 50 (steroid-free) ([2]; 30 mg, N30 = 22): 8
Mean time to symptomatic UC relapse ([2]; 30 mg, N = 40): 221.9 days
Clinical Remission Rate at Week 50 ([2]; 30 mg, n = 26/29): 61.5%
Endoscopic Healing Rate at Week 50 ([2]; 30 mg, n = 26/29): 73.1%
Number of Patients Meeting Endpoint (Endoscopic Healing at Week 50) ([2]; 30 mg, n = 26/29): 19
Number of Patients with Clinical Remission at Week 50 ([2]; 30 mg, n = 26/29 evaluated/total): 16
odds ratio (30 mg IMU-838/Placebo) for clinical remission at Week 50 ([2]; 30 mg, two-sided Pearson's chi-square p=0.0358): 4.16
safety and tolerability ([3]; induction phase, 10, 30, 45 mg/day): safe and well-tolerated
Incidence of Liver TEAEs ([3]; maintenance phase, 10 mg): 2.2%
Incidence of Renal TEAEs ([3]; maintenance phase, 10 mg): 2.2%
Incidence of Serious TEAEs ([3]; maintenance phase, 10 mg): 6.7%
Incidence of TEAEs ([3]; maintenance phase, 10 mg, N10 = 45): 35.6%
Incidence of TEAEs of Special Interest ([3]; maintenance phase, 10 mg): 0.0%
Incidence of Liver TEAEs ([3]; maintenance phase, 30 mg): 0.0
Incidence of Renal TEAEs ([3]; maintenance phase, 30 mg): 5%
Incidence of Serious TEAEs ([3]; maintenance phase, 30 mg): 5%
Incidence of TEAEs ([3]; maintenance phase, 30 mg, N30 = 40): 40%
Incidence of TEAEs of Special Interest ([3]; maintenance phase, 30 mg): 5%
safety and tolerability ([3]; maintenance phase, 10 and 30 mg): safe and well tolerated
safety profile ([4]; 30 mg and 45 mg doses): favorable safety profile
suppression of MRI activity ([4]; 30 mg dose, 24-weeks of treatment): 70%
half-life [5]: approximately 30 h
potency against human DHODH (human DHODH): submicromolar potency
T-lymphocyte proliferation [6]: inhibited
secretion of IL-17 and IFNγ [7]: inhibited

COc1cccc(-c2ccc(NC(=O)C3=C(C(=O)O)CCC3)c(F)c2)c1 [Vidofludimus, 2-((3-fluoro-3′-methoxy-[1,1′-biphenyl]-4-yl)carbamoyl)cyclopent-1-enecarboxylic acid]
number of partial responders (patients with CD; 35 mg oral once daily): 4
partial responders (patients with CD; 35 mg oral once daily): 29%
patients in steroid-free remission (complete responders) (patients with CD; 35 mg oral once daily): 57%
number of patients in steroid-free remission (complete responders) (patients with CD; out of 14, 35 mg oral once daily): 8
number of partial responders (patients with UC; 35 mg oral once daily): 5
partial responders (patients with UC; 35 mg oral once daily): 42%
patients in steroid-free remission (complete responders) (patients with UC; 35 mg oral once daily): 50%
number of patients in steroid-free remission (complete responders) (patients with UC; out of 12, 35 mg oral once daily): 6
tolerability / drug-related serious adverse events [8]: well tolerated and no drug-related serious adverse events were observed
diarrhoea, alopecia, neutropenia or liver enzyme elevations [9]: no notable increases
safety profile compared to placebo [9]: overall similar safety profile as compared to placebo
